Assay [1] concerns the target T1, butyrylcholinesterase from equine serum (eqBChE, E.C. 3.1.1.8) (Equus caballus, UniProt P81908).
T1 construct: butyrylcholinesterase from equine serum (eqBChE, E.C. 3.1.1.8); purchased Sigma Aldrich; host or cells: equine serum
Kind of assay: biochemical.

The target in assay [2] is Acetylcholinesterase from electric eel (eeAChE, type VI-S) (Electrophorus electricus, UniProt O42275). Nature of the assay: biochemical.
Setting [3] is: eqBChE, Ellman assay, triplicate.
Where [4] appears, read: eeAChE, Ellman assay, triplicate.

Where two headings read alike, the source gives them in different places.

By IC50 is commonly meant the concentration at which inhibition is half-maximal.

Sequence of Acetylcholinesterase from electric eel (eeAChE, type VI-S) (O42275 24-633): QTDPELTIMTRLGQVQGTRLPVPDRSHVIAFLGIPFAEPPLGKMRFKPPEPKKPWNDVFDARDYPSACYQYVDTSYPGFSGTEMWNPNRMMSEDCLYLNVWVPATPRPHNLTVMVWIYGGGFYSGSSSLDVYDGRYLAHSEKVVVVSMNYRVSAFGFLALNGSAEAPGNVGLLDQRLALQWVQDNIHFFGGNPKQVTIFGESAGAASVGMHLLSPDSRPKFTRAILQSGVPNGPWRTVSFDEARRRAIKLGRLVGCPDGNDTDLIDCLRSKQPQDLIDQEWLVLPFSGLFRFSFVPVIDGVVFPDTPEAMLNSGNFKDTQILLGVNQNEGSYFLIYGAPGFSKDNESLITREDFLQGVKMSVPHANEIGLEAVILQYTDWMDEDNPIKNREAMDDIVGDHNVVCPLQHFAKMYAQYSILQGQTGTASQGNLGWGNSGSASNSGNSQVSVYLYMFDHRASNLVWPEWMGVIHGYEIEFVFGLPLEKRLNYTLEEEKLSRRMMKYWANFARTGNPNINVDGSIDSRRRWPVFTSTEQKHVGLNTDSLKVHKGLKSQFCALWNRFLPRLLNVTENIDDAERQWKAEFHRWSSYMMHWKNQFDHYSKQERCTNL
T1 sequence (P81908 whole entry): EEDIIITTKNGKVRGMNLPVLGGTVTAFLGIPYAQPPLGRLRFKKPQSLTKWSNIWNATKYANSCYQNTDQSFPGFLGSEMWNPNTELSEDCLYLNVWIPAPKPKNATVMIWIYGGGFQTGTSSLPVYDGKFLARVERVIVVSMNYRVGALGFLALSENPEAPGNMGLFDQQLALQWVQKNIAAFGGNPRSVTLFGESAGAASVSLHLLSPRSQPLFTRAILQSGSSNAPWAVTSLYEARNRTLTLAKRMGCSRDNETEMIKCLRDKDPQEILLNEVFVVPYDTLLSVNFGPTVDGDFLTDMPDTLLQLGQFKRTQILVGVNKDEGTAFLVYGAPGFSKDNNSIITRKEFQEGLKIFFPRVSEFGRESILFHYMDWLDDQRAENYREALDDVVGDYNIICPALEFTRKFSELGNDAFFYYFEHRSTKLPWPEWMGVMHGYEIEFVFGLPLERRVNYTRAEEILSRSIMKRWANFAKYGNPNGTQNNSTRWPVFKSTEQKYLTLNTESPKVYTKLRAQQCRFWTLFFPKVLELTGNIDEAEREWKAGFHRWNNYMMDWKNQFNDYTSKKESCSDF

`Cc1ccc(Cn2nnc3ccc4sccc4c32)cc1` [Compound 14, 1-(4-methylbenzyl)-1H-thieno [3’,2’:3,4]benzo [1,2-d][1,2,3]triazole]: the results for the IC50 in assay [1] (setting [3]) and in assay [2] (setting [4]) were 24.3 µM and 117 µM, respectively.
`Clc1ccc(Cn2nnc3ccc4sccc4c32)cc1` [Compound 15, 1-(4-chlorobenzyl)-1H-thieno [3’,2’:3,4]benzo [1,2-d][1,2,3]triazole]: the 50% inhibitory concentration (IC50) came out at 34.6 µM in assay [1] (setting [3]) and 77 µM in assay [2] (setting [4]).
For `Cc1cccc(Cn2nnc3ccc4sccc4c32)c1` [Compound 16, 1-(3-methylbenzyl)-1H-thieno [3’,2’:3,4]benzo [1,2-d][1,2,3]triazole] the same measures were 2.9 µM and 77.1 µM.
For `Cc1ccc(Cn2nnc3ccc4sc(C)cc4c32)cc1` [Compound 17, 7-methyl-1-(4-methylbenzyl)-1H-thieno [3’,2’:3,4]benzo [1,2-d][1,2,3]triazole] the same measures were 57.6 µM and above 250 µM.
Regarding `Cc1cc2c(ccc3nnn(Cc4ccc(Cl)cc4)c32)s1` [Compound 18, 1-(4-chlorobenzyl)-7-methyl-1H-thieno [3’,2’:3,4]benzo [1,2-d][1,2,3]triazole], the values for the concentration for half-maximal inhibition (IC50) in assay [1] (setting [3]) and in assay [2] (setting [4]) were 59 µM and above 100 µM, respectively.
Turning to `Cc1cccc(Cn2nnc3ccc4sc(C)cc4c32)c1` [Compound 19, 7-methyl-1-(3-methylbenzyl)-1H-thieno [3’,2’:3,4]benzo [1,2-d][1,2,3]triazole], the IC50 in assay [1] (setting [3]) was 70.3 µM; in assay [2] (setting [4]), above 250 µM.
For `COc1cccc(Cn2nnc3ccc4sc(C)cc4c32)c1` [Compound 20, 1-(3-methoxybenzyl)-7-methyl-1H-thieno [3’,2’:3,4]benzo [1,2-d][1,2,3]triazole] the same measures were 90.2 µM and 186 µM.
Turning to `Cc1cc2c(ccc3nnn(Cc4cccc(F)c4)c32)s1` [Compound 21, 1-(3-fluorobenzyl)-7-methyl-1H-thieno [3’,2’:3,4]benzo [1,2-d][1,2,3]triazole], the results for the half-maximal inhibitory concentration (IC50) in assay [1] (setting [3]) and in assay [2] (setting [4]) were 172 µM and 465 µM, respectively.
For `Cc1ccc(Cn2n[n+](C)c3ccc4sccc4c32)cc1` [Compound 22, 3-methyl-1-(4-methylbenzyl)-1H-thieno [3’,2’:3,4]benzo [1,2-d][1,2,3]triazol-3-ium], the values for the concentration for half-maximal inhibition (IC50) in assay [1] and in assay [2] were 1 µM and 39.2 µM, respectively.
`C[n+]1nn(Cc2ccc(Cl)cc2)c2c3ccsc3ccc21` [Compound 23, 1-(4-chlorobenzyl)-3-methyl-1H-thieno [3’,2’:3,4]benzo [1,2-d][1,2,3]triazol-3-ium]: the values for the 50% inhibitory concentration (IC50) in assay [1] and in assay [2] were 0.47 µM and 4.4 µM, respectively.
On to `Cc1cccc(Cn2n[n+](C)c3ccc4sccc4c32)c1` [Compound 24, 3-methyl-1-(3-methylbenzyl)-1H-thieno [3’,2’:3,4]benzo [1,2-d][1,2,3]triazol-3-ium], for which the results for the concentration for half-maximal inhibition (IC50) in assay [1] (setting [3]) and in assay [2] (setting [4]) were 7 µM and 55.1 µM, respectively.
`Cc1ccc(Cn2n[n+](C)c3ccc4sc(C)cc4c32)cc1` [Compound 25, 3,7-dimethyl-1-(4-methylbenzyl)-1H-thieno [3’,2’:3,4]benzo [1,2-d][1,2,3]triazol-3-ium]: the IC50 was found to be 102 µM in assay [1] and 211 µM in assay [2].
Regarding `Cc1cc2c(ccc3c2n(Cc2ccc(Cl)cc2)n[n+]3C)s1` [Compound 26, 1-(4-chlorobenzyl)-3,7-dimethyl-1H-thieno [3’,2’:3,4]benzo [1,2-d][1,2,3]triazol-3-ium], the results for the IC50 in assay [1] (setting [3]) and in assay [2] (setting [4]) were 13.4 µM and 8.1 µM, respectively.
For `Cc1cccc(Cn2n[n+](C)c3ccc4sc(C)cc4c32)c1` [Compound 27, 3,7-dimethyl-1-(3-methylbenzyl)-1H-thieno [3’,2’:3,4]benzo [1,2-d][1,2,3]triazol-3-ium], in that order: 9.7 µM and 8.3 µM.
Regarding `COc1cccc(Cn2n[n+](C)c3ccc4sc(C)cc4c32)c1` [Compound 28, 1-(3-methoxybenzyl)-3,7-dimethyl-1H-thieno [3’,2’:3,4]benzo [1,2-d][1,2,3]triazol-3-ium], the IC50 in assay [1] (setting [3]) was found to be 10.6 µM; in assay [2] (setting [4]) it was 54.8 µM.
With `C[n+]1nn(Cc2cccc(Cl)c2)c2c3ccsc3ccc21` [Compound 30, 1-(3-chlorobenzyl)-3-methyl-1H-thieno [3’,2’:3,4]benzo [1,2-d][1,2,3]triazol-3-ium], the IC50 in assay [1] turned out to be 2.7 µM; in assay [2], 12.2 µM.
Take `C[n+]1nn(Cc2ccco2)c2c3ccsc3ccc21` [Compound 31, 1-(furan-2-ylmethyl)-3-methyl-1H-thieno [3’,2’:3,4]benzo [1,2-d][1,2,3]triazol-3-ium]: the IC50 in assay [1] (setting [3]) turned out to be 16.1 µM; in assay [2] (setting [4]), 157 µM.

The values are drawn from PMC11591901 (Biomolecules, 2024).
